Measurements as given in PubChem BioAssay AID1996.
≈ marks a conversion by molar mass, not a printed value.

settings: buffer; pH 7.4; 200.0 µM

| SMILES | solubility kinetic [µg/mL] |
| --- | --- |
| COc1ccc(C(CNC(=O)c2cccc(S(=O)(=O)N3CCc4ccccc43)c2)N(C)C)cc1 (stereo not given) | 39.3 (≈ 81.9 µM) |
| CC1(C)CC(=O)C=C(Nc2ccc(F)c(Cl)c2)C1 | > 40.2 |
| Cc1ccc(-c2cn3cc(C)ccc3n2)cc1 | 1.6 (≈ 7.2 µM) |
| COc1ccc(NC(=O)CNC(=O)c2cccs2)cc1Cl | 2.7 (≈ 8.31 µM) |
| CC(=O)SC1CC(=O)N(c2ccc(C(C)(C)C)cc2)C1=O (stereo not given) | 5.7 (≈ 18.7 µM) |
| CCOC(=O)N1CCc2c(sc3nc[nH]c(=O)c23)C1 | 38.9 (≈ 139 µM) |
| CCCCN(C(=O)c1ccncc1)c1c(N)n(CCC)c(=O)[nH]c1=O | 37.1 (≈ 107 µM) |
| Cc1noc2ncnc(N3CCCC3)c12 | > 30.6 |
| Cc1cc(C)cc(NC(=S)N(CCN(C)C)Cc2cccs2)c1 | 43.7 (≈ 126 µM) |
| CC(C)(C)NC(=O)NC12CC3CC(CC(C3)C1)C2 | 2.1 (≈ 8.39 µM) |
| CC(NC(=O)COC(=O)c1ccc[nH]c1=O)c1ccccc1 (stereo not given) | > 45 |
| Cc1cccc(NC(=O)CN2C(=O)NC3(CCCCCCC3)C2=O)c1C | 49 (≈ 137 µM) |
| Cc1cccc(NC(=O)COC(=O)CCc2ccccc2)c1C | 5.9 (≈ 18.9 µM) |
| Cc1ccc(C(=O)NCc2ccco2)o1 | > 30.8 |
| N#Cc1cc([N+](=O)[O-])ccc1NC(=O)COC(=O)CN1C(=O)C2CCCCC2C1=O (stereo not given) | > 62.2 |
| N#CC1=C(N)N(c2ccc(Cl)c(Cl)c2)C(=O)C1 | > 40.2 |
| Cc1ccc(C#N)c(SCCN2CCCCC2)n1 | 32.4 (≈ 124 µM) |
| S=C(Nc1ccccc1)N1CCN(C/C=C/c2ccccc2)CC1 | > 50.6 |
| CCN(CC)CCCN=Cc1c(O)n(-c2cccc(C)c2)c(=O)c2ccccc12 | > 58.7 |
| CS(=O)(=O)N1CCN(C(=O)CSc2ccccc2)CC1 | > 47.2 |
| Cc1ccccc1CN1C(=O)c2ccccc2S1(=O)=O | 2.5 (≈ 8.7 µM) |
| CNC(=S)NC1CC2CCCC(C1)N2Cc1ccc(C)cc1 (stereo not given) | 45.9 (≈ 145 µM) |

| SMILES | solubility kinetic [µg/mL] |
| --- | --- |
| Cc1nc(Nc2ccc(Cl)cc2)c(C#N)c(=O)[nH]1 | 9.6 (≈ 36.8 µM) |
| Cc1nc(NC(=O)c2ccccc2)sc1C | 29.6 (≈ 127 µM) |
| CS(=O)(=O)c1ccc(NC(=O)CN2C(=O)C3CCCCC3C2=O)cc1 (stereo not given) | > 54.7 |
| Cc1cc(C(=O)NC(C)C2CCCO2)no1 (stereo not given) | > 33.6 |
| CCN(CC)c1nc2ccccc2[nH]c1=O | 10.7 (≈ 49.2 µM) |
| Cn1c(=O)c2c(ncn2CC(=O)Nc2cc(S(=O)(=O)N3CCCCC3)ccc2Cl)n(C)c1=O | 10.5 (≈ 21.2 µM) |
| COc1ccc(NS(=O)(=O)c2ccc3[nH]c(=O)[nH]c3c2)cc1OC | > 52.4 |
| O=C(Nc1cccc(S(=O)(=O)N2CCOCC2)c1)c1cc(=O)[nH]c2ccccc12 | 9.9 (≈ 23.9 µM) |
| COc1cccc(NC(=S)N2CCN(C)CC2)c1 | > 39.8 |
| Cc1ccc(C(=O)N2CCN(c3ccc([N+](=O)[O-])cc3)CC2)o1 | 40.2 (≈ 127 µM) |
| O=C(CN1c2cccc3cccc(c23)S1(=O)=O)NCc1ccc(F)cc1 | 27.4 (≈ 74 µM) |
| COc1ccc(N/N=C(\C#N)C(=N)N2CCOCC2)cc1 | > 43.1 |
| Cc1ccccc1NS(=O)(=O)c1cccc2nonc12 | > 43.4 |
| Cc1cc(C)cc(C(=O)NCC(=O)OCC(=O)NC2CCCc3ccccc32)c1 (stereo not given) | 8.4 (≈ 21.3 µM) |
| CN1C(=O)NC(=O)/C(=C/c2ccc(C(=O)O)cc2)C1=O | > 41.1 |
| CCOC(=O)c1ccc(NC(=O)C2C3CCCCC32)cc1 (stereo not given) | < 0.6 |
| COc1ccc(/C(N)=N/O)c(OC)c1 | > 29.4 |
| O=C(NCC(=O)N1CCCC1)c1ccc(Cl)cc1 | > 40 |
| CN1CCN(CCc2nc3cc(NC(=O)c4ccco4)ccc3n2C)CC1 | > 55.1 |
| CCOC(=O)C[n+]1ccc2c([nH]c3ccccc32)c1C.[Br-] | 49.7 |
| COc1ccc(NC(=O)/C=C/c2cccc(Br)c2)cn1 | 3.8 (≈ 11.4 µM) |
| Cc1cccc(-n2c(-c3ccc(Br)o3)n[nH]c2=S)c1 | > 50.4 |

| SMILES | solubility kinetic [µg/mL] |
| --- | --- |
| COc1ccc(C)cc1NCc1ccc([N+](=O)[O-])cc1 | 3.1 (≈ 11.4 µM) |
| O=C(NCc1ccccn1)Nc1ccccc1 | > 34.1 |
| CC1CC(C)(C)NC(=S)N1CCCC(=O)Nc1ccc(Cl)cc1 (stereo not given) | 36.7 (≈ 104 µM) |
| O=c1[nH]cccc1-c1nc2ccccc2n1Cc1cccc(F)c1 | 2.4 (≈ 7.52 µM) |
| Cc1sc(NC(=S)NC(=O)c2ccco2)c(C#N)c1C | 1.1 (≈ 3.6 µM) |
| CC1(C)CC(=O)N(c2cc(Cl)cc(Cl)c2)C(=O)C1 | 11.7 (≈ 40.9 µM) |
| COc1ccccc1N1CCN(C(=O)c2c(-c3c(F)cccc3Cl)noc2C)CC1 | 52.9 (≈ 123 µM) |
| CC(=O)C1=C(O)C(=O)N(Cc2ccccc2)C1c1ccc(F)cc1 (stereo not given) | > 48.8 |
| O=C(Nc1ccc(Cl)c(S(=O)(=O)N2CCOCC2)c1)c1ccncc1 | > 57.3 |
| CCOc1ccc(N2C(=O)CC(SCC(=O)O)C2=O)cc1 (stereo not given) | > 46.4 |
| O=C(c1cc2ccccc2cc1O)N1CCCC(C(F)(F)F)C1 (stereo not given) | > 48.5 |
| O=C1CC(NC(=O)C(F)(F)F)c2cc3c(cc21)OCO3 (stereo not given) | 42.3 (≈ 147 µM) |
| Cc1cc(SCC(=O)Nc2cccnc2Cl)nc2ccccc12 | < 0.2 |
| Cc1ccc(-n2c(CNCc3ccc(F)cc3)nc3ccccc3c2=O)cc1 | 35.1 (≈ 94 µM) |
| O=C1CCC/C1=C\Nc1ccc(Cl)c([N+](=O)[O-])c1 | 7.2 (≈ 27 µM) |
| COc1ccccc1C(=O)NCCC(=O)N1CCCC(C(F)(F)F)C1 (stereo not given) | 52.3 (≈ 146 µM) |
| Cc1cc(Cl)ccc1OCC(=O)Nc1ccc(CN2CCOCC2)cc1 | 41.3 (≈ 110 µM) |
| CCOc1ccc(CNCCCSc2ncccn2)cc1 | > 45.5 |
| Cl.NC(=NCCc1ccccc1)c1cccc([N+](=O)[O-])c1 | > 45.9 |
| O=C(c1ccc2ncsc2c1)N1CCCCC1 | > 36.9 |
| O=C(Nc1ccccc1O)c1ccc(NC(=O)C2CC2)cc1 | 1.9 (≈ 6.41 µM) |
| Cc1cccc(C(=O)OCC(=O)NC(C)CCc2ccccc2)c1O (stereo not given) | < 0.7 |

| SMILES | solubility kinetic [µg/mL] |
| --- | --- |
| CN(C)C(=S)Nc1cccc(C(F)(F)F)c1 | 29.7 (≈ 120 µM) |
| CC(C)(C)NC(=O)COc1ccc(CNCc2ccccn2)cc1.Cl | > 54.6 |
| Cc1ccc(CSCC(=O)NCc2cccs2)cc1 | 41.9 (≈ 144 µM) |
| CCOc1ccccc1NC(=O)CN1CCc2ccccc2C1 | 1.9 (≈ 6.12 µM) |
| O=C1NC(=S)N/C1=C/c1cccc2ccccc12 | 1.7 (≈ 6.68 µM) |
| COC(=O)c1ccccc1NC(=O)c1onc(C)c1Cl | < 0.3 |
| CC(=O)Nc1ccc(NC(=O)c2c([N+](=O)[O-])cnn2C)cc1 | > 45.5 |
| O=C(NCCc1ccc(F)cc1)C1CCCO1 (stereo not given) | 27.6 (≈ 116 µM) |
| COc1ccccc1CNC(=O)CN1C(=O)NC(Cc2ccccc2)(c2ccccc2)C1=O (stereo not given) | 32.9 (≈ 74.2 µM) |
| Cl.Fc1ccccc1Nc1nc(Cl)nc(Cl)n1 | > 44.3 |
| O=C(Nc1ccccc1C(F)(F)F)c1ccccc1Br | 39.8 (≈ 116 µM) |
| O=C(c1cc2cc(Cl)ccc2[nH]1)N1CCC2(CC1)OCCO2 | 16 (≈ 49.9 µM) |
| CCOC(=O)C1=C(COC(=O)/C=C/c2ccco2)NC(=O)NC1C (stereo not given) | 23.1 (≈ 69.1 µM) |
| CCCC/C=C1\CCc2c([nH]c3ccccc23)C1=O | 2 (≈ 7.89 µM) |
| CCN(CC)c1ccc(NC(=O)c2ccccc2Br)cc1S(=O)(=O)Nc1ccccc1OC | 0.6 (≈ 1.13 µM) |
| Cc1ccc(C(=O)NCC(=O)NCc2ccccc2F)s1 | > 46 |
| COc1ccccc1-n1cc(-c2ccc([N+](=O)[O-])cc2)[nH]c1=S | 0.3 (≈ 0.916 µM) |
| Cc1ccc(S(=O)(=O)Nc2ccccc2C(=O)N2CCCCC2)cc1 | > 53.8 |
| Cc1cc(C)nc(/N=C(\N)Nc2ccc(OCCC(C)C)cc2)n1 | > 49.1 |
